For 7 compounds, IC50 and AC50 results are on record in patent US9181266B2, “2-piperidin-1-yl-acetamide compounds for use as tankyrase inhibitors” (NOVARTIS AG, priority 2011, dated 2015).

One assay deals with PARP2 (Mus musculus (Mouse), UniProt O88554). The assay can be described thus: PARP2 autoparsylation assay (LC/MS detection of nicotinamide). Type of assay: biochemical. To be noted: 20 nM enzyme, 250 μM β-NAD+, 60 min. As for the experimental part: (§1) The autoparsylation activity of the TNKS 1/2 or PARP1/2 enzymes was measured by the liquid chromatography-mass spectrometry (LC/MS) detection of nicotinamide as readout. Compound activity in inhibiting the TNKS and PARP autoparsylation was evaluated by IC50 measurements.

The target in assay [1] is tankyrase 2 protein PARP domain, TNKS2P (Homo sapiens (Human), UniProt Q9H2K2). The assay can be described thus: TNKS2 autoparsylation assay (LC/MS detection of nicotinamide). Conditions: read-out: TNKS2 AP IC50, 20 nM enzyme, 250 μM β-NAD+, 60 min.
The test system of assay [2] is Non-small lung cancer ABC-1 cells. The assay is described as follows: Cellular proliferation assay (CellTiter-Glo). To be noted: Homo sapiens, 72 h; ABC-1 cells, 3 days of compound treatment; read-out: ABC-1 IC50. It counts as cell-based. For orientation: In ATP-based viability assays light output follows the ATP content of the culture.
Protocol: Cellular Proliferation Assay to Determine Compound Inhibition of Cancer Cell Growth
Viable cells were measured after 3 days of compound treatment using the CellTiter-Glo assay (Promega, G7570). Assay was performed following the manufacture protocol.
Assay [3] concerns Wnt ligand-induced signaling in HEK293 cells. The assay is described as follows: Wnt-responsive Super-TOpFlash (STF) luciferase reporter gene assay. Type of assay: cell-based. To be noted: Homo sapiens, Wnt3A condition medium. An outline of the steps:
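HEK293 cells (8000/well, 5% FBS medium) treated with 20% mouse L-cell Wnt3A conditioned medium plus compounds in 10-point serial dilution; luciferase read next day. Inhibition calculated relative to Wnt3A-induced signal without compound and background without Wnt3A CM or compound.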
On the technique in general: A reporter such as luciferase makes a cellular process visible.

For assay [4], the system named is Axin2 protein in SW480 cells. The assay is described as follows: Cellular ELISA assay of Axin2 protein stabilization. It counts as cell-based. Conditions: Homo sapiens, 24 hrs, read-out: Axin AC50. An outline of the steps: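 SW480 colorectal cells seeded overnight, treated with compound, then lysed. Axin2 in lysates measured by sandwich ELISA: anti-Axin2 capture antibody coated at 1 μg/ml (pH 9.2), lysate 2 h at room temperature, biotinylated anti-Axin2 detection 2 h, then streptavidin-HRP 30 min.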

In another assay the target is Human PARP1 (Homo sapiens (Human), UniProt P09874). The assay can be described thus: PARP1 autoparsylation assay (LC/MS detection of nicotinamide). Type of assay: biochemical. To be noted: 20 nM enzyme, 250 μM β-NAD+, 60 min. How it is done: as §1
Assay [5] concerns the target human tankyrase 1 PARP catalytic domain, TNKS1P (Homo sapiens (Human), UniProt O95271). The assay can be described thus: TNKS1 autoparsylation assay (LC/MS detection of nicotinamide). To be noted: read-out: TNKS1 AP IC50, 20 nM enzyme, 250 μM β-NAD+, 60 min.

human tankyrase 1 PARP catalytic domain, TNKS1P, sequence (O95271 1112-1317): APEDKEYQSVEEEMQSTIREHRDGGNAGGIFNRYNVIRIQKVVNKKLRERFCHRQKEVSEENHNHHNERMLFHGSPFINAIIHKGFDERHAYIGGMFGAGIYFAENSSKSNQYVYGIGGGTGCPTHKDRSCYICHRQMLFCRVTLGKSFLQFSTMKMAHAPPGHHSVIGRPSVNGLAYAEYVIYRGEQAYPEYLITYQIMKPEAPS
Human PARP1, sequence (P09874 whole entry, the tested form may be a part): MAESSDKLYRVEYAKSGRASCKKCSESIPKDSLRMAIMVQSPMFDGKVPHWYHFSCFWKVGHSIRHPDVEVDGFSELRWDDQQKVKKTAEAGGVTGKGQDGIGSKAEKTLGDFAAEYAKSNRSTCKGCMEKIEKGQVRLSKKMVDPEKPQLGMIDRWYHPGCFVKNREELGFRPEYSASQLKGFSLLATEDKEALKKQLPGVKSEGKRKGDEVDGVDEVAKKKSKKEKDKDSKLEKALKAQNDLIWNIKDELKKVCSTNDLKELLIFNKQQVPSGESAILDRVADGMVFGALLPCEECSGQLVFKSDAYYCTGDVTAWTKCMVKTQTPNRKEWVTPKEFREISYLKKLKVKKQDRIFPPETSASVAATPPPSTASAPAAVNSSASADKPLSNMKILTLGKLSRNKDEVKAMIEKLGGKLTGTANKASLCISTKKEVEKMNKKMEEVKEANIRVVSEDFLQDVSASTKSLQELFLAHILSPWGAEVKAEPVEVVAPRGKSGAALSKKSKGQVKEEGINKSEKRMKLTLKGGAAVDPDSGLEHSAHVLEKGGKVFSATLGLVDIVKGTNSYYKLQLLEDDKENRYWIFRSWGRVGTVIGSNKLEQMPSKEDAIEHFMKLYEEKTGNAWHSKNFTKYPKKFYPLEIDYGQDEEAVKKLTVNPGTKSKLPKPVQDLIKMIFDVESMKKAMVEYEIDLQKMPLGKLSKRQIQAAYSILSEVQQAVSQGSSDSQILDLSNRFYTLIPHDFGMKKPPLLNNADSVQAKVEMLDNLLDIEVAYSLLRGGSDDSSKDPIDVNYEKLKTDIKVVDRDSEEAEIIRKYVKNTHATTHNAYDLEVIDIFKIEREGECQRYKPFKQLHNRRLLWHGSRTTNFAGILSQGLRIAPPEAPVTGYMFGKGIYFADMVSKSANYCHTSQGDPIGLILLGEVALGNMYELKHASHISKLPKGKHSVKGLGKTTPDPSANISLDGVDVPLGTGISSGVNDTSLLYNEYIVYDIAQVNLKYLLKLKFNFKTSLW
tankyrase 2 protein PARP domain, TNKS2P, sequence (Q9H2K2 959-1164): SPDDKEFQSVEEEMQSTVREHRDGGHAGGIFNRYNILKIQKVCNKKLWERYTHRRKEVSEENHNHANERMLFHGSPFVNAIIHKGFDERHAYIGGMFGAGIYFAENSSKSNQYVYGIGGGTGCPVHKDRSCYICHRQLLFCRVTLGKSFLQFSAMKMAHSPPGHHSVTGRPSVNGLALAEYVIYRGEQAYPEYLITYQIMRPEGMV
PARP2, sequence (O88554 whole entry): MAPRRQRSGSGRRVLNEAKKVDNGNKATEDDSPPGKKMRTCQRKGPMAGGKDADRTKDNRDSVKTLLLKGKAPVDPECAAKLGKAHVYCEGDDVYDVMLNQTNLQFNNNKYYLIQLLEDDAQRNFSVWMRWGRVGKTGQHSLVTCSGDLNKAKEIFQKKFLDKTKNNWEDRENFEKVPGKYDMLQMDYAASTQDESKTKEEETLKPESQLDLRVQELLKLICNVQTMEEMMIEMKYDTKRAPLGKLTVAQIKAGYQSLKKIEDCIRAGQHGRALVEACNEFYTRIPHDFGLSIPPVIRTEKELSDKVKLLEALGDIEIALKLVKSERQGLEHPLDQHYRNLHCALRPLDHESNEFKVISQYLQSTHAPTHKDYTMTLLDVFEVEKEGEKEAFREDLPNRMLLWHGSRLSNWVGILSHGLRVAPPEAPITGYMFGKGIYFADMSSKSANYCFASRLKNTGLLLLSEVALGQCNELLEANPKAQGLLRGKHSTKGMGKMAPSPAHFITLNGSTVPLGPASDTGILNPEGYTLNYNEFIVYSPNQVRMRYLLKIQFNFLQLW

On to `COCCN(Cc1nc2c(c(=O)[nH]1)COCC2)C(=O)CN1CCC(C(=O)c2ccc(OC)cc2)CC1` [Example 54, 2-[4-(4-Methoxy-benzoyl)-piperidin-1-yl]-N-(2-methoxy-ethyl)-N-(4-oxo-3,5,7,8-tetrahydro-4H-pyrano[4,3-d]pyrimidin-2-ylmethyl)-acetamide], for which the half-inhibitory concentration (IC50) against PARP2 was above 19000 nM; in assay [1], 14 ± 3 nM; in assay [2], 1840 nM; in assay [3] it was 91 ± 13 nM; against Human PARP1, above 19000 nM; in assay [5], 35 ± 6 nM. Further, the AC50 in assay [4] is 1200 ± 100 nM.

On to `COc1ccc(C(=O)C2CCN(CC(=O)NCc3nc4c(c(=O)[nH]3)COCC4)CC2)cc1` [Example 67, 2-(4-(4-Methoxybenzoyl)piperidin-1-yl)-N-((4-oxo-4,5,7,8-tetrahydro-3H-pyrano[4,3-d]pyrimidin-2-yl)methyl)acetamide], for which the IC50 against PARP2 was found to be 3640 ± 630 nM; in assay [1], 12 ± 2 nM; in assay [2], 45 nM; in assay [3] it was 5.3 ± 4.1 nM; on Human PARP1, 10000 ± 3200 nM; in assay [5], 28 ± 6 nM. Also, in assay [4], the AC50 worked out at 16 ± 3 nM.

Take `O=C(c1ccc(OC(F)(F)F)cc1)C1CCN(CC(=O)N(Cc2nc3c(c(=O)[nH]2)COCC3)CC2CC2)CC1` [Example 70, N-Cyclopropylmethyl-N-(4-oxo-3,5,7,8-tetrahydro-4H-pyrano[4,3-c]pyrimidin-2-ylmethyl)-2-[4-(4-trifluoromethoxy-benzoyl)-piperidin-1-yl]-acetamide]: the IC50 is above 19000 nM at PARP2; 8 nM in assay [1]; 392 nM in assay [2]; 8 ± 1.6 nM in assay [3]; above 19000 nM against Human PARP1; 37 ± 2 nM in assay [5]. Besides, the AC50 in assay [4] was found to be 135 ± 7 nM.

For `O=C(c1ccc(OC(F)(F)F)cc1)C1CCN(CC(=O)N(Cc2nc3c(c(=O)[nH]2)COCC3)CC(F)F)CC1` [Example 71, N-(2,2-Difluoro-ethyl)-N-(4-oxo-3,5,7,8-tetrahydro-4H-pyrano[4,3-d]pyrimidin-2-ylmethyl)-2-[4-(4-trifluoromethoxy-benzoyl)-piperidin-1-yl]-acetamide], the 50% inhibitory concentration (IC50) was 11760 ± 50 nM against PARP2; 15 ± 1 nM in assay [1]; 100 nM in assay [2]; 17.5 ± 6.6 nM in assay [3]; above 19000 nM against Human PARP1; 43 ± 1 nM in assay [5]. In addition, the AC50 in assay [4] worked out at 58 ± 12 nM.

As for `CC#CCOc1ccc(C(=O)C2CCN(CC(=O)N(Cc3nc4c(c(=O)[nH]3)COCC4)CC3CC3)CC2)cc1` [Example 78, 2-[4-(4-But-2-ynyloxy-benzoyl)-piperidin-1-yl]-N-cyclopropylmethyl-N-(4-oxo-3,5,7,8-tetrahydro-4H-pyrano[4,3-d]pyrimidin-2-ylmethyl)-acetamide], the concentration for half-maximal inhibition (IC50) is above 19000 nM against PARP2; 15 ± 2 nM in assay [1]; 2010 nM in assay [2]; 155 ± 8 nM in assay [3]; 14700 ± 4600 nM on Human PARP1; 29 ± 2 nM in assay [5]. Besides, in assay [4], the AC50 was determined as 1920 ± 240 nM.

For the compound `Cc1ccc(C(=O)C2CCN(CC(=O)NCc3nc4c(c(=O)[nH]3)COCC4)CC2)cc1` [Example 83, 2-[4-(4-Methyl-benzoyl)-piperidin-1-yl]-N-(4-oxo-3,5,7,8-tetrahydro-4H-pyrano[4,3-d]pyrimidin-2-ylmethyl)-acetamide], the concentration for half-maximal inhibition (IC50) was 2300 ± 360 nM at PARP2; 18 ± 2 nM in assay [1]; above 10000 nM in assay [2]; above 10000 nM in assay [3]; 8300 ± 3000 nM at Human PARP1; 64 nM in assay [5]. Moreover, the AC50 in assay [4] was above 10000 nM.

`CCCOc1ccc(C(=O)C2CCN(CC(=O)NCc3nc4c(c(=O)[nH]3)COCC4)CC2)cc1` [Example 84, N-(4-Oxo-3,5,7,8-tetrahydro-4H-pyrano[4,3-d]pyrimidin-2-ylmethyl)2-[4-(4-propoxy-benzoyl)-piperidin-1-yl]acetamide]: the IC50 at PARP2 worked out at 2130 ± 440 nM; in assay [1] it was 13 ± 2 nM; in assay [2], 301 nM; in assay [3], 11 ± 3 nM; against Human PARP1 it was 4800 ± 250 nM; in assay [5] it was 23 ± 5 nM. In assay [4], the half-maximal activity concentration (AC50) was 162 ± 19 nM.

In general, IC50 refers to the concentration that gives 50% inhibition. Broadly, the AC50 is the concentration at which the activity in the assay is half-maximal.
